Converted amounts (≈) assume the structure as drawn. The source made the active and inactive calls. No cut-off for these calls is given here.
Experiments:
Staphylococcus aureus [1] = test: Antibacterial activity against methicillin-resistant Staphylococcus aureus N315 assessed as inhibition of visible growth measured after 18 to 24 hrs by broth dilution method; format: functional; conditions: time 18-24 hrs
Escherichia coli [2] = test: Antibacterial activity against Escherichia coli ATCC 25922 assessed as inhibition of visible growth measured after 18 to 24 hrs by broth dilution method; format: functional; conditions: time 18-24 hrs
[3] = Selectivity ratio, HC50 for hemolytic activity in rabbit RBC to MIC for antibacterial activity against Staphylococcus aureus ATCC 29213; format: toxicity; conditions: rabbit red blood cells
[4] = Selectivity ratio, HC50 for hemolytic activity in rabbit RBC to MIC for antibacterial activity against methicillin-resistant Staphylococcus aureus NCTC 10442; format: toxicity; conditions: rabbit red blood cells
Pseudomonas aeruginosa [5] = test: Antibacterial activity against Pseudomonas aeruginosa ATCC 9027 assessed as inhibition of visible growth measured after 18 to 24 hrs by broth dilution method; format: functional; conditions: time 18-24 hrs
Klebsiella pneumoniae [6] = test: Antibacterial activity against Klebsiella pneumoniae ATCC 14581 assessed as inhibition of visible growth measured after 18 to 24 hrs by broth dilution method; format: functional; conditions: time 18-24 hrs
[7] = Selectivity ratio, HC50 for hemolytic activity in rabbit RBC to MIC for antibacterial activity against Pseudomonas aeruginosa ATCC 9027; format: toxicity; conditions: rabbit red blood cells
[8] = Selectivity ratio, HC50 for hemolytic activity in rabbit RBC to MIC for antibacterial activity against Acinetobacter baumannii R2889; format: toxicity; conditions: rabbit red blood cells
Staphylococcus aureus [9] = test: Antibacterial activity against Staphylococcus aureus ATCC 29213 assessed as inhibition of visible growth measured after 18 to 24 hrs in presence of 3220 ug/ml Na+ by broth dilution method; format: functional; conditions: time 18-24 hrs
Staphylococcus aureus [10] = test: Antibacterial activity against methicillin-resistant Staphylococcus aureus N315 assessed as inhibition of visible growth measured after 18 to 24 hrs in presence of 175.5 ug/ml K+ by broth dilution method; format: functional; conditions: time 18-24 hrs
Staphylococcus aureus [11] = test: Antibacterial activity against methicillin-resistant Staphylococcus aureus N315 assessed as inhibition of visible growth measured after 18 to 24 hrs in presence of 100 ug/ml Ca2+ by broth dilution method; format: functional; conditions: time 18-24 hrs
Staphylococcus aureus [12] = test: Antibacterial activity against methicillin-resistant Staphylococcus aureus NCTC 10442 assessed as inhibition of visible growth measured after 18 to 24 hrs in presence of 3220 ug/ml Na+ by broth dilution method; format: functional; conditions: time 18-24 hrs
Staphylococcus aureus [13] = test: Antibacterial activity against methicillin-resistant Staphylococcus aureus NCTC 10442 assessed as inhibition of visible growth measured after 18 to 24 hrs in presence of 100 ug/ml Ca2+ by broth dilution method; format: functional; conditions: time 18-24 hrs
Staphylococcus aureus [14] = test: Antibacterial activity against methicillin-resistant Staphylococcus aureus NCTC 10442 assessed as inhibition of visible growth measured after 18 to 24 hrs in presence of 24.3 ug/ml Mg2+ by broth dilution method; format: functional; conditions: time 18-24 hrs
Escherichia coli [15] = test: Antibacterial activity against Escherichia coli […] assessed as inhibition of visible growth measured after 18 to 24 hrs in presence of 100 ug/ml Ca2+ by broth dilution method; format: functional; conditions: time 18-24 hrs
Klebsiella pneumoniae [16] = test: Antibacterial activity against Klebsiella pneumoniae ATCC 10031 assessed as inhibition of visible growth measured after 18 to 24 hrs in presence of 175.5 ug/ml K+ by broth dilution method; format: functional; conditions: time 18-24 hrs
Staphylococcus aureus [17] = test: Antibacterial activity against Staphylococcus aureus ATCC 29213 assessed as reduction in bacterial load at 8 time of MIC measured after 8 hrs by time kill assay; format: functional
Escherichia coli [18] = test: Antibacterial activity against Escherichia coli ATCC 25922 assessed as reduction in bacterial load at 8 time of MIC measured with in 30 mins by time kill assay; format: functional; conditions: 0.5 h
Escherichia coli [19] = test: Antibacterial activity against Escherichia coli ATCC 25922 assessed as bacterial regrowth at 8 time of MIC measured after 24 hrs by time kill assay; format: functional, organism-based
Cell membrane [20] = test: Induction of membrane integrity disruption in Staphylococcus aureus ATCC 29213 assessed as increase fluoresence intensity at 4 to 8 times of MIC measured for 60 mins by SYTOX Green uptake assay; format: subcellular
Cell membrane [21] = test: Induction of membrane integrity disruption in methicillin-resistant Staphylococcus aureus NCTC 10442 assessed as increase fluoresence intensity at 4 to 8 times of MIC measured for 60 mins by SYTOX Green uptake assay; format: subcellular
Cell membrane [22] = test: Induction of outer membrane permeability in Escherichia coli ATCC 25922 assessed as increase fluoresence intensity at 4 to 8 times of MIC measured for 60 mins by NPN uptake assay; format: subcellular
Cell membrane [23] = test: Induction of membrane depolarization in Escherichia coli ATCC 25922 assessed as increase in fluorescence intensity at 4 to 8 times MIC measured for 60 mins by DiSC3(5) dye based fluorescence method; format: subcellular
Staphylococcus aureus [24] = test: Displacement of BODIPY-TR-cadaverin from Staphylococcus aureus lipoteichoic acid at MIC concentration incubated for 30 mins by fluorescence based analysis
Staphylococcus aureus [25] = test: Displacement of BODIPY-TR-cadaverin from Staphylococcus aureus lipoteichoic acid at 8 times of MIC incubated for 30 mins by fluorescence based analysis
Lipopolysaccharide (LPS) = test: Displacement of BODIPY-TR-cadaverin from Escherichia coli lipopolysaccharide at 8 times of MIC incubated for 30 mins by fluorescence based analysis
Staphylococcus aureus [26] = test: Inhibition of biofilm formation Staphylococcus aureus ATCC 29213 assessed as decrease in biofilm formation at 0.10 ug/ml measured after 24 hrs by crystal violet staining assay; format: functional
Staphylococcus aureus [27] = test: Inhibition of biofilm formation Staphylococcus aureus ATCC 29213 assessed as decrease in biofilm formation at 0.20 ug/ml measured after 24 hrs by crystal violet staining assay; format: functional
Staphylococcus aureus [28] = test: Inhibition of biofilm formation Staphylococcus aureus ATCC 29213 assessed as decrease in biofilm formation at 0.78 ug/ml measured after 24 hrs by crystal violet staining assay; format: functional
Escherichia coli [29] = test: Inhibition of biofilm formation Escherichia coli ATCC 25922 assessed as decrease in biofilm formation at 0.39 ug/ml measured after 24 hrs by crystal violet staining assay; format: functional
Escherichia coli [30] = test: Inhibition of biofilm formation Escherichia coli ATCC 25922 assessed as decrease in biofilm formation at 6.25 ug/ml measured after 24 hrs by crystal violet staining assay; format: functional
Escherichia coli [31] = test: Eradication of biofilm in Escherichia coli ATCC 25922 assessed as biofilm viability at 6.25 ug/ml measured after 24 hrs by crystal violet staining assay; format: functional; conditions: dose 6.25 µg/ml
Escherichia coli [32] = test: Eradication of biofilm in Escherichia coli ATCC 25922 assessed as biofilm viability at 12.5 ug/ml measured after 24 hrs by crystal violet staining assay; format: functional; conditions: dose 12.5 µg/ml
Escherichia coli [33] = test: Drug resistance development in Escherichia coli ATCC 25922 assessed as fold change in MIC measured after 20 passages; format: functional
[34] = Cytotoxicity against HEK293 cells assessed as cell viability after 24 hrs incubation byCCK-8 assay; format: toxicity, cell-based; conditions: human
Pseudomonas aeruginosa [35] = test: In vivo antibacterial activity against Pseudomonas aeruginosa ATCC 9027 infected in C57BL/6 mouse keratitis model assessed as reduction in number of viable bacterial colonies in infected cornea at 5 mg/kg topically 4 times per day for 3 consecutive days; format: functional; conditions: route top, time 3 day

SMILES: CCCCCCCCC(=O)NCc1ccc(OCCCCCCNC(=N)N)c(OCCCCCCNC(=N)N)c1
- MIC (Staphylococcus aureus [1]): 0.39 µg/mL (≈ 0.694 µM)
- MIC (Escherichia coli [2]): 1.56 µg/mL (≈ 2.78 µM)
- selectivity ratio [3]: 173
- selectivity ratio [4]: 173
- MIC (Pseudomonas aeruginosa [5]): 6.25 µg/mL (≈ 11.1 µM)
- MIC (Klebsiella pneumoniae [6]): 1.56 µg/mL (≈ 2.78 µM)
- selectivity ratio [7]: 21.6
- selectivity ratio [8]: 21.6
- MIC (Staphylococcus aureus [9]): 0.39 µg/mL
- MIC (Staphylococcus aureus [10]): 0.39 µg/mL
- MIC (Staphylococcus aureus [11]): 0.39 µg/mL
- MIC (Staphylococcus aureus [12]): 0.39 µg/mL
- MIC (Staphylococcus aureus [13]): 0.39 µg/mL
- MIC (Staphylococcus aureus [14]): 0.39 µg/mL
- MIC (Escherichia coli [15]): 3.12 µg/mL
- MIC (Klebsiella pneumoniae [16]): 0.78 µg/mL
- Activity (Staphylococcus aureus [17]): 3.59 log10CFU/ml
- Activity (Escherichia coli [18]): 4.56 log10CFU/ml
- Activity (Escherichia coli [19]): Active
- Activity (Cell membrane [20]): Active
- Activity (Cell membrane [21]): Active
- Activity (Cell membrane [22]): Dose-Dependent Effect
- Activity (Cell membrane [23]): Active
- Activity (Staphylococcus aureus [24]): 10.2%
- Activity (Staphylococcus aureus [25]): 38.4%
- Activity (Lipopolysaccharide (LPS)): 103%
- inhibition at 0.1 µg/mL (Staphylococcus aureus [26]): 34.1%
- inhibition at 0.2 µg/mL (Staphylococcus aureus [27]): 62.3%
- inhibition at 0.78 µg/mL (Staphylococcus aureus [28]): 99.7%
- inhibition at 0.39 µg/mL (Escherichia coli [29]): 85.1%
- inhibition at 6.25 µg/mL (Escherichia coli [30]): 109%
- Activity (Escherichia coli [31]): 22.66%
- Activity (Escherichia coli [32]): 15.04%
- fold change (FC) (Escherichia coli [33]): <4
- CC50 at 24 h [34]: 27.8 µg/mL (≈ 49.5 µM)
- Activity (Pseudomonas aeruginosa [35]): 4.69 log10CFU/ml

Source: ChEMBL document CHEMBL5236632, “Membrane-Active Nonivamide Derivatives as Effective Broad-Spectrum Antimicrobials: Rational Design, Synthesis, and Biological Evaluation” (J Med Chem, 2022)
